Data set [1] is described as follows: Flux of estradiol from equilibrated acrylate adhesive matrices through a 10 mil Silastic membrane (Example 7, Table 2). The data set is classed as in vitro ADME. The note with it: for Flux: 20 wt % acrylate matrix, 10 mil Silastic membrane, 32° C.; for average flux: average from Table 2 data. How it is done: Consequently, Crystal X provides an advantage in the preparation of pharmaceutical formulations comprising Crystal X especially transdermal drug delivery matrices. When Crystal X crystals are prepared in transdernal drug delivery formulations,the inherent increase in activity due to the higher thermodynamic activity of the Crystal X crystal versus E2-HH provides for increased flux. For example, equilibrated matrices containing Crystal X and E2-HH crystals were prepared in substantial accordance with the teaching of Example 7 herein and assayed for permeation through a Silastic membrane.
Measurement of estradiol flux was determined by drug flux through a 10 mil Silastic membrane in a modified Franz diffusion cells in substantial accordance with the following procedure. The adhesive matrix systems were peeled off the polyester release liner and placed on top of the Silastic membrane. Gentle pressure was applied to insure full contact between the drug adhesive layer and membrane. The membrane with the prototype system was then mounted carefully between the donor and the receiver compartments. The receiver compartment was filled nanopure water and the temperature was maintained at 32° C.±1° C. throughout the experimental period. Samples of receiver content was withdrawn and replaced with fresh buffer. Samples were assayed by HPLC.
Membrane flux (mg/cm^2 /hr) was determined by evaluating the cumulative flux of drug through a Silastic membrane over a given period of time and dividing by the time period. After steady state had been established, the flux values corresponding to steady state were averaged to obtain the flux value.
20 wt % acrylate adhesive matrices were prepared in accordance with Example 1. 20 % Crystal X was prepared in accordance with Example 3. The laminates were allowed to equilibrate for a period of 8 weeks to insure complete crystal structureation. Flux was determined as permeation through a 10 mil Silastic membrane as described above. The cumulative release of estradiol into the receiver was determined by HPLC method described above. The average flux over the period was calculated as the cumulative amount of drug in receiver divided by cumulative time.

The conditions of data set [2]: cited from earlier work.

SMILES strings stand for the structures.

Take `C[C@]12CC[C@@H]3c4ccc(O)cc4CC[C@H]3[C@@H]1CC[C@@H]2O` [Crystal X, estra-1, 3, 5(10)-triene-3, 17β-diol]: the Flux was 0.132 μg/cm^2 /hr in data set [1] (2.5 hrs), 0.238 μg/cm^2 /hr in data set [1] (8.375 hrs), 0.216 μg/cm^2 /hr in data set [1] (17.625 hrs) and 0.220 μg/cm^2 /hr in data set [1] (27.75 hrs). This compound also returned an average flux in data set [1] of 0.22 μg/cm^2 /hr. In data set [1] (higher than for E2-HH, 32° C. wet), the “flux value at the end of the flux profile relative to E2-HH” value is on record as “about 2 times”. For the same compound, the thermodynamic activity result in data set [1] (versus E2-HH) is given as “increased thermodynamic activity with respect to E2-HH”.

Regarding `C[C@]12CC[C@@H]3c4ccc(O)cc4CC[C@H]3[C@@H]1CC[C@@H]2O` [estradiol, estra-1, 3, 5(10)-triene-3, 17β-diol], the “blood level in hormone replacement therapy” value in data set [2] (level the normal dosage is to produce, hormone replacement therapy) is given as “about 30 ng/L”. For the same compound, the “blood level for treatment of osteoporosis” value in data set [2] (level utilized, osteoporosis) was “approximately 40 ng/L”.

Consider `C[C@]12CC[C@@H]3c4ccc(O)cc4CC[C@H]3[C@@H]1CC[C@@H]2O` [E2-HH], for which the Flux in data set [1] (2.5 hrs) amounted to 0.080 μg/cm^2 /hr; in data set [1] (8.375 hrs) it was 0.139 μg/cm^2 /hr; in data set [1] (17.625 hrs), 0.142 μg/cm^2 /hr; in data set [1] (27.75 hrs), 0.146 μg/cm^2 /hr. The same compound showed an average flux in data set [1] of 0.14 μg/cm^2 /hr.

(Values after patent publication US5928666A, “Crystalline form of estradiol and pharmaceutical formulations comprising same” (Cygnus Inc., priority 1997, dated 1999).)
